{
  "source": "patent US20250387378A1",
  "about": "“METHODS AND COMPOSITIONS FOR PREVENTING SKIN TOXICITIES CAUSED BY BIOLOGICAL TARGETED CANCER DRUGS” (Hadasit Medical Research Services & Development Limited, priority 2019, published 2025)",
  "key": {"[1]": {"molecular_target": "T1, EGFR (Homo sapiens, UniProt P00533)", "experiment": "ELISA, blocking of cetuximab binding to EGFR", "settings": "for blocking of cetuximab binding to EGFR (in words): ELISA"}, "[2]": {"system": "A431 cells", "experiment": "annexin-V/PI flow cytometry, panitumumab induced death in A431 cells", "assay_type": "cell-based", "settings": "72 hours", "description": "Apoptosis and cell death were evaluated by annexin-V and propidium-iodide (PI) labeling, followed by flow cytometry. The experiments show improved cell viability of A431 cells treated with G-4 and E-3 compounds with panitumumab as compared to panitumumab alone. A) flow cytometry of one representative experiment showing elevation of percentage of live cells from 18% live cells after panitumumab alone verses 40% live cells with panitumumab and G-4 compound and 42% live cells with E-3 compound and panitumumab treatment. B) bar graph depicting percent live A431 cells with the different treatment conditions."}, "[3]": {"molecular_target": "T1, EGFR", "experiment": "blocking of panitumumab (vectibix) binding to EGFR", "settings": "FIG. 3"}, "[4]": {"system": "HaCaT cells", "experiment": "annexin-V/PI flow cytometry, cetuximab induced cell death in HaCaT cells", "assay_type": "cell-based, human", "description": "(§1) The novel approach proposed by the invention is to specifically target and block the effect of the anti-neoplastic biological targeted agents in the skin.\n(§2) Apoptosis and cell death were evaluated by annexin-V and propidium-iodide (PI) labeling, followed by flow cytometry."}, "[5]": {"experiment": "Franz chamber skin penetration", "assay_type": "in vitro ADME, human", "settings": "FIG. 12", "description": "The inventors designed and fabricated solidified polymer micelles composed of linear […] (PEG-PLA) of ˜20 nm, which was previously shown to have stability and ability to penetrate cells efficiently."}, "[6]": {"system": "phosphorylated EGFR receptor", "experiment": "p-EGFR level by flow cytometry, HaCaT cells treated with EGF and cetuximab", "assay_type": "cell-based, human", "settings": "for effect on p-EGFR expression (in words): HaCaT cells treated with cetuximab, 5 uM compound", "description": "as §1\n(§3) The level of phosphorylated EGFR receptor was measured in cell lines by flow cytometry."}, "[7]": {"system": "A431 cells", "experiment": "annexin-V/PI flow cytometry, cetuximab induced cell death in A431 cells", "assay_type": "cell-based", "description": "as §2"}, "[8]": {"system": "phosphorylated EGFR receptor", "experiment": "p-EGFR level by flow cytometry, A431 cells treated with EGF and cetuximab", "assay_type": "cell-based", "settings": "for effect on p-EGFR expression (in words): A431 cells treated with cetuximab, 5 uM compound; for activated levels of p-EGFR: A431 cells, 20 minutes, EGF, cetuximab and 5 uM compound", "description": "as §3"}, "[9]": {"system": "HaCaT and A431 cell lines", "experiment": "MTT proliferation assay with bispecific EGFRi", "assay_type": "cell-based", "settings": "keratinocyte cell lines", "description": "(§4) The efficacity of SDT-011 efficacy in preventing bispecific EGFRi binding to recombinant human EGFR (rhEGFR) was evaluated. ELISA was used to assess binding inhibition, while MTT assays in HaCaT and A431 cell lines measured the reversal of EGFR inhibition on keratinocyte cell line proliferation, and flow cytometry quantified EGFR expression on the cell surface. Additionally, in silico docking experiments provided insights into SDT-011's mechanism of action in blocking amivantamab, petosemtamab, and izalontamab."}, "[10]": {"molecular_target": "recombinant human EGFR (rhEGFR) (Homo sapiens, UniProt P00533)", "experiment": "ELISA, inhibition of bispecific EGFRi antibody binding to rhEGFR", "description": "as §4"}, "[11]": {"molecular_target": "T1, EGFR", "experiment": "flow cytometry of EGFR expression on the cell surface with bispecific EGFRi", "assay_type": "cell-based", "description": "as §4"}, "[12]": {"system": "HaCaT cells", "experiment": "annexin-V/PI flow cytometry, erlotinib induced death in HaCaT cells", "assay_type": "cell-based, human", "settings": "erlotinib alone, 72 hours", "description": "To test if ATP analogues can protect keratinocyte from erlotinib induced death we treated HaCaT cells with erlotinib alone and with erlotinib+5 uM ATP analogue for 72 hours. Apoptosis and cell death were evaluated by annexin-V and propidium-iodide (PI) labeling, followed by flow cytometry. […] B) bar graph depicting percent dead HaCaT cells with the different treatment conditions."}, "[13]": {"system": "keratinocytes", "experiment": "percent live keratinocytes after adding sn molecules to erlotinib and gefitinib", "assay_type": "cell-based", "settings": "added to erlotinib and gefitinib, FIG. 9B"}, "[14]": {"system": "HaCaT keratinocytes", "experiment": "percent survival of HaCaT keratinocytes with trametinib plus sn8", "assay_type": "cell-based, human", "settings": "added to trametinib, FIG. 9B"}, "[15]": {"settings": "panitumumab + compound (0.5 uM and 5 uM)"}, "[16]": {"settings": "G-4 added to cetuximab treatment, 72 hours, one representative experiment"}, "[17]": {"settings": "cetuximab + 0.5 uM and 5 uM G-4, 72 hours"}},
  "note": "“Also recorded” adds a separate entry of the source. Where a name gives a salt, the structure may show the parent alone.",
  "data": [
    {"molecule": "Cc1cc(Cl)cc(N)c1N", "note": "[E3, (2-amino-4-chloro-6-methylphenyl)amine hydrochloride]", "values": [
      {"measurement": "blocking of cetuximab binding to EGFR (in words)", "setting": "[1]; hydrochloride", "value": "blocking of cetuximab binding to EGFR; also recorded: dose-dependent manner"},
      {"measurement": "live cells", "setting": "[2]; [15]", "value": 42, "unit": "%"},
      {"measurement": "blocking of panitumumab (vectibix) binding to EGFR (in words)", "setting": "[3]", "value": "block the binding"}
    ]},
    {"molecule": "CC(=O)c1sc2nc(-c3cccnc3)cc(C(F)F)c2c1N", "note": "[G4, 1-[3-amino-4-(difluoromethyl)-6-(3-pyridinyl)thieno[2,3-b]pyridin-2-yl]ethanone]", "values": [
      {"measurement": "live cells", "setting": "[4]; [16]", "value": 64, "unit": "%"},
      {"measurement": "average improvement of viability against cetuximab induced cell death", "setting": "[4]; [17]", "value": 30, "unit": "%"},
      {"measurement": "penetration through full human skin (in words)", "setting": "[5]", "value": "does not penetrate full human skin"},
      {"measurement": "blocking of cetuximab binding to EGFR (in words)", "setting": "[1]", "value": "blocking of cetuximab binding to EGFR; also recorded: dose-dependent manner; also recorded: block cetuximab's binding to EGFR"},
      {"measurement": "blocking of binding of cetuximab to EGFR", "setting": "[1]; screening plate, FIG. 2A", "value": 42, "unit": "%"},
      {"measurement": "effect on p-EGFR expression (in words)", "setting": "[6]", "value": "increase p-EGFR expression"},
      {"measurement": "live cells", "setting": "[7]; [16]", "value": 54.5, "unit": "%"},
      {"measurement": "average improvement of viability against cetuximab induced cell death", "setting": "[7]; [17]", "value": "more than 50%"},
      {"measurement": "effect on p-EGFR expression (in words)", "setting": "[8]", "value": "increase p-EGFR expression"},
      {"measurement": "activated levels of p-EGFR", "setting": "[8]", "value": "~30", "unit": "%"},
      {"measurement": "live cells", "setting": "[2]; [15]", "value": 40, "unit": "%"},
      {"measurement": "blocking of panitumumab (vectibix) binding to EGFR (in words)", "setting": "[3]", "value": "block the binding"}
    ]},
    {"molecule": "Cc1ccc(-c2cc(C(F)(F)F)c3c(N)c(C#N)sc3n2)cc1", "note": "[LW11]", "values": [
      {"measurement": "blocking of cetuximab binding to EGFR (in words)", "setting": "[1]", "value": "dose-dependent manner; also recorded: block cetuximab's binding to EGFR"},
      {"measurement": "antiproliferative effects induced by amivantamab (in words)", "setting": "[9]; FIG. 18 panel D", "value": "reversal of the antiproliferative effects"},
      {"measurement": "antiproliferative effects induced by petosemtamab (in words)", "setting": "[9]; FIG. 18 panel E", "value": "reversal of the antiproliferative effects"},
      {"measurement": "antiproliferative effects induced by izalontamab (in words)", "setting": "[9]; FIG. 18 panel F", "value": "reversal of the antiproliferative effects"},
      {"measurement": "effect on p-EGFR expression (in words)", "setting": "[6]", "value": "increase p-EGFR expression"},
      {"measurement": "activated levels of p-EGFR", "setting": "[6]; HaCaT cells, 20 minutes, EGF, cetuximab and 5 uM compound", "value": "up to 46%"},
      {"measurement": "effect on p-EGFR expression (in words)", "setting": "[8]", "value": "increase p-EGFR expression"},
      {"measurement": "activated levels of p-EGFR", "setting": "[8]", "value": "~30", "unit": "%"},
      {"measurement": "inhibition of amivantamab binding to EGFR (in words)", "setting": "[10]; FIG. 17 panel A", "value": "effectively inhibited the binding"},
      {"measurement": "inhibition of petosemtamab binding to EGFR (in words)", "setting": "[10]; FIG. 17 panel B", "value": "effectively inhibited the binding"},
      {"measurement": "inhibition of izalontamab binding to EGFR (in words)", "setting": "[10]; FIG. 17 panel C", "value": "effectively inhibited the binding"},
      {"measurement": "total EGFR (tEGFR) expression / receptor internalization by amivantamab (in words)", "setting": "[11]; FIG. 18 panel A", "value": "stabilizes total EGFR (tEGFR) expression"},
      {"measurement": "total EGFR (tEGFR) expression / receptor internalization by petosemtamab (in words)", "setting": "[11]; FIG. 18 panel B", "value": "stabilizes total EGFR (tEGFR) expression"},
      {"measurement": "total EGFR (tEGFR) expression / receptor internalization by izalontamab (in words)", "setting": "[11]; FIG. 18 panel C", "value": "stabilizes total EGFR (tEGFR) expression"}
    ]},
    {"molecule": "C#Cc1cccc(Nc2ncnc3cc(OCCOC)c(OCCOC)cc23)c1", "note": "[erlotinib]", "values": [
      {"measurement": "dead cells", "setting": "[12]", "value": 13.5, "unit": "%"}
    ]},
    {"molecule": "N#Cc1cc(N)ccc1F", "note": "[sn6]", "values": [
      {"measurement": "percent live keratinocytes (in words)", "setting": "[13]", "value": "improved percent live keratinocytes"}
    ]},
    {"molecule": "CC(=O)Nc1ccc(F)c(Cl)c1", "note": "[sn7]", "values": [
      {"measurement": "percent live keratinocytes (in words)", "setting": "[13]", "value": "improved percent live keratinocytes"}
    ]},
    {"molecule": "Nc1ccc(OCc2ccccn2)c(Cl)c1", "note": "[sn8]", "values": [
      {"measurement": "percent live keratinocytes (in words)", "setting": "[13]", "value": "improved percent live keratinocytes"},
      {"measurement": "percent survival of HaCaT keratinocytes (in words)", "setting": "[14]", "value": "improved percent survival of HaCaT keratinocytes"}
    ]},
    {"molecule": "O=C(CN1C(=O)c2ccccc2C1=O)Nc1cccc(Cl)c1", "note": "[sn9]", "values": [
      {"measurement": "percent live keratinocytes (in words)", "setting": "[13]", "value": "improved percent live keratinocytes"}
    ]},
    {"molecule": "panitumumab: human monoclonal antibody specific to the epidermal growth factor receptor [reference compound]", "values": [
      {"measurement": "live cells", "setting": "[2]; panitumumab alone", "value": 18, "unit": "%"}
    ]}
  ]
}
